According to ChEMBL document CHEMBL5579888, “A Comparative Study on the DNA Interactions and Biological Activities of Benzophenanthridine and Protoberberine Alkaloids” (J Nat Prod, 2024):
Active and inactive are the calls of the source. No cut-off for these calls is given here.

What was measured:
Quadruplex DNA [1] = test: Binding affinity to human G4-quadruplex Oxy28 DNA 5'- GGGGTTTTGGGGTTTTGGGGTTTTGGGG -3' at 10 uM by CD spectra analysis; format: nucleic-acid assay
Salmon testes DNA = test: Displacement of Hoechst 33342 from salmon sperm DNA incubated for 0.5 hrs by SpectraMax M2 microplate reader analysis; format: nucleic-acid assay, Salmo salar
Quadruplex DNA [2] = test: Binding affinity to human G4-quadruplex 22AG DNA 5'- AGGGTTAGGGTTAGGGTTAGGG -3' assessed as change in fluorescence intensity at 1 uM incubated for 0.5 hrs in presence of different concentrations of DNA by fluorescence spectra analysis; format: nucleic-acid assay
Quadruplex DNA [3] = test: Binding affinity to human G4-quadruplex Bcl2 DNA 5'- CGGGCGCGGGAGGAAGGGGGCGGGAGC-3' assessed as change in fluorescence intensity at 1 uM incubated for 0.5 hrs by fluorescence spectra analysis; format: nucleic-acid assay
Quadruplex DNA [4] = test: Binding affinity to human G4-quadruplex KRAS DNA 5'- AGGGCGGTGTGGGAAGAGGGAAGAGGGGGAGG-3' assessed as change in fluorescence intensity at 1 uM incubated for 0.5 hrs by fluorescence spectra analysis; format: nucleic-acid assay
Quadruplex DNA [5] = test: Displacement of ThT from human G4-quadruplex 22AG DNA 5'- AGGGTTAGGGTTAGGGTTAGGG -3' incubated for 0.5 hrs by SpectraMax M2 microplate reader analysis; format: nucleic-acid assay
dsDNA [6] = test: Binding affinity to double stranded DNA ssab (unknown origin) assessed as change in fluorescence intensity at 1 uM incubated for 0.5 hrs by fluorescence spectra analysis; format: nucleic-acid assay
A-375 [7] = test: Induction of apoptosis in human A-375 cells assessed assessed as viable cells at 5 uM incubated for 24 hrs by Annexin V-Elab Fluor 647/propidium iodide staining based flow cytometry (reference value: 91.1 %); format: functional; details: read-out: Activity
Quadruplex DNA [8] = test: Displacement of ThT from human G4-quadruplex Pu27 DNA 5'- TGGGGAGGGTGGGGAGGGTGGGGAAGG-3' incubated for 0.5 hrs by SpectraMax M2 microplate reader analysis; format: nucleic-acid assay
Quadruplex DNA [9] = test: Binding affinity to human G4-quadruplex Pu27 DNA 5'- TGGGGAGGGTGGGGAGGGTGGGGAAGG-3' assessed as change in fluorescence intensity at 1 uM incubated for 0.5 hrs in presence of different concentrations of DNA by fluorescence spectra analysis; format: nucleic-acid assay
Quadruplex DNA [10] = test: Binding affinity to human G4-quadruplex VEGF DNA 5'- GGGCGGGCCGGGGGCGGG-3' assessed as change in fluorescence intensity at 1 uM incubated for 0.5 hrs in presence of different concentrations of DNA by fluorescence spectra analysis; format: nucleic-acid assay
A-375 [11] = test: Induction of cell cycle arrest in human A-375 cells assessed assessed as cell accumulation at G2/M phase at 5 uM incubated for 24 hrs by propidium iodide staining based flow cytometry (reference value: 15.70 %); format: functional
Quadruplex DNA [12] = test: Binding affinity to human G4-quadruplex Oxy28 DNA 5'- GGGGTTTTGGGGTTTTGGGGTTTTGGGG -3' assessed as change in fluorescence intensity at 1 uM incubated for 0.5 hrs in presence of different concentrations of DNA by fluorescence spectra analysis; format: nucleic-acid assay
Quadruplex DNA [13] = test: Displacement of ThT from human G4-quadruplex VEGF DNA 5'- GGGCGGGCCGGGGGCGGG-3' incubated for 0.5 hrs by SpectraMax M2 microplate reader analysis; format: nucleic-acid assay
Quadruplex DNA [14] = test: Binding affinity to human G4-quadruplex 22AG DNA 5'- AGGGTTAGGGTTAGGGTTAGGG -3' assessed as change in fluorescence intensity at 1 uM incubated for 0.5 hrs by fluorescence spectra analysis; format: nucleic-acid assay
dsDNA [15] = test: Binding affinity to double stranded DNA AT12 (unknown origin) incubated for 0.5 hrs in presence of different concentration DNA by fluorescence spectra analysis; format: nucleic-acid assay
A-375 [16] = test: Induction of DNA damage in human A-375 cells assessed as appearance of long DNA tails at 5 uM incubated for 24 hrs by comet assay; format: functional, cell-based
Quadruplex DNA [17] = test: Binding affinity to human G4-quadruplex KRAS DNA 5'- AGGGCGGTGTGGGAAGAGGGAAGAGGGGGAGG-3' at 20 uM by UV-Visible absorption spectroscopic analysis; format: nucleic-acid assay
Quadruplex DNA [18] = test: Binding affinity to human G4-quadruplex VEGF DNA 5'- GGGCGGGCCGGGGGCGGG-3' assessed as change in fluorescence intensity at 1 uM incubated for 0.5 hrs by fluorescence spectra analysis; format: nucleic-acid assay
Quadruplex DNA [19] = test: Binding affinity to human G4-quadruplex VEGF DNA 5'- GGGCGGGCCGGGGGCGGG-3' at 20 uM by UV-Visible absorption spectroscopic analysis; format: nucleic-acid assay
Quadruplex DNA [20] = test: Displacement of ThT from human G4-quadruplex KRAS DNA 5'- AGGGCGGTGTGGGAAGAGGGAAGAGGGGGAGG-3' incubated for 0.5 hrs by SpectraMax M2 microplate reader analysis; format: nucleic-acid assay
A-375 [21] = test: Inhibition of DNA synthesis in human A-375 cells at 5 uM incubated for 24 hrs by Edu incorporation based flow cytometry analysis; format: functional, cell-based
dsDNA [22] = test: Binding affinity to double stranded DNA AT15 (unknown origin) incubated for 0.5 hrs in presence of different concentration DNA by fluorescence spectra analysis; format: nucleic-acid assay
dsDNA [23] = test: Binding affinity to double stranded DNA AT17 (unknown origin) incubated for 0.5 hrs in presence of different concentration DNA by fluorescence spectra analysis; format: nucleic-acid assay
Quadruplex DNA [24] = test: Binding affinity to human G4-quadruplex Pu27 DNA 5'- TGGGGAGGGTGGGGAGGGTGGGGAAGG-3' assessed as change in fluorescence intensity at 1 uM incubated for 0.5 hrs by fluorescence spectra analysis; format: nucleic-acid assay
Quadruplex DNA [25] = test: Binding affinity to human G4-quadruplex Oxy28 DNA 5'- GGGGTTTTGGGGTTTTGGGGTTTTGGGG -3' at 20 uM by UV-Visible absorption spectroscopic analysis; format: nucleic-acid assay
dsDNA [26] = test: Binding affinity to double stranded DNA ssab (unknown origin) assessed as change in fluorescence intensity at 1 uM incubated for 0.5 hrs in presence of different concentrations of DNA by fluorescence spectra analysis; format: nucleic-acid assay
dsDNA [27] = test: Binding affinity to double stranded DNA ssab1 (unknown origin) incubated for 0.5 hrs in presence of different concentration DNA by fluorescence spectra analysis; format: nucleic-acid assay
Quadruplex DNA [28] = test: Binding affinity to human G4-quadruplex KRAS DNA 5'- AGGGCGGTGTGGGAAGAGGGAAGAGGGGGAGG-3' assessed as change in fluorescence intensity at 1 uM incubated for 0.5 hrs in presence of different concentrations of DNA by fluorescence spectra analysis; format: nucleic-acid assay
A-375 [29] = test: Induction of apoptosis in human A-375 cells assessed assessed as early apoptotic cells at 5 uM incubated for 24 hrs by Annexin V-Elab Fluor 647/propidium iodide staining based flow cytometry (reference value: 1.14 %); format: functional
Quadruplex DNA [30] = test: Binding affinity to human G4-quadruplex 22AG DNA 5'- AGGGTTAGGGTTAGGGTTAGGG -3' at 20 uM by UV-Visible absorption spectroscopic analysis; format: nucleic-acid assay
Quadruplex DNA [31] = test: Displacement of ThT from human G4-quadruplex Bcl2 DNA 5'- CGGGCGCGGGAGGAAGGGGGCGGGAGC-3' incubated for 0.5 hrs by SpectraMax M2 microplate reader analysis; format: nucleic-acid assay

SMILES | Activity (Quadruplex DNA [1]) | DC50 (Salmon testes DNA) [nM] | Activity (Quadruplex DNA [3]) | Activity (Quadruplex DNA [4]) | DC50 (Quadruplex DNA [5]) [nM] | Activity (dsDNA [6]) | viability at 5 µM (A-375 [7]) [%] | DC50 (Quadruplex DNA [8]) [nM] | Kd (Quadruplex DNA [9]) [nM] | Activity (A-375 [11]) [%] | DC50 (Quadruplex DNA [13]) [nM] | Activity (Quadruplex DNA [14]) | EC50 (dsDNA [15]) [nM] | Activity (A-375 [16]) | Activity (Quadruplex DNA [17]) | Activity (Quadruplex DNA [18]) | Activity (Quadruplex DNA [19]) | DC50 (Quadruplex DNA [20]) [nM] | inhibition (A-375 [21]) | EC50 (dsDNA [23]) [nM] | also measured
COc1ccc2cc3[n+](cc2c1OC)CCc1cc2c(cc1-3)OCO2 [BERBERINE] | inactive | 56600 | Active | Active | 23500 | inactive | 35.4 | 540 | 5400 | 14.59 | 580 | Active | 130 | inactive | Active | Active | Active | 2640 | inactive | 720 | Kd (Quadruplex DNA [2]): 15600 nM; Kd (Quadruplex DNA [10]): 4960 nM; Kd (Quadruplex DNA [12]): 1670 nM; Activity (dsDNA [22]): inactive; Activity (Quadruplex DNA [24]): Active; Activity (Quadruplex DNA [25]): Active; Activity (dsDNA [26]): inactive; EC50 (dsDNA [27]): 450 nM; Kd (Quadruplex DNA [28]): 1890 nM; Activity (A-375 [29]): 1.28%; Activity (Quadruplex DNA [30]): Active; Kd (Quadruplex DNA [31]): 1840 nM
COc1ccc2c(c[n+](C)c3c4cc5c(cc4ccc23)OCO5)c1OC [CHELERYTHRINE] | inactive | 6470 | Active | Active | 3040 | Active | 56 | 480 | 5290 | 30.83 | 410 | Active | 2110 | Active | Active | Active | Active | 850 | Active | 3890 | Activity (Quadruplex DNA [2]): inactive; Activity (Quadruplex DNA [10]): inactive; Activity (Quadruplex DNA [12]): inactive; EC50 (dsDNA [22]): 1130 nM; Activity (Quadruplex DNA [24]): Active; Activity (Quadruplex DNA [25]): Active; Activity (dsDNA [26]): Active; EC50 (dsDNA [27]): 970 nM; Kd (Quadruplex DNA [28]): 1070 nM; Activity (A-375 [29]): 1.84%; Activity (Quadruplex DNA [30]): Active; Kd (Quadruplex DNA [31]): 860 nM
c1c2c(cc3c1OCO3)-c1cc3ccc4c(c3c[n+]1CC2)OCO4 [COPTISINE] | inactive | 38100 | Active | Active | 1970 | inactive | 0.022 | 140 | 2170 | 14.48 | 120 | Active | 18500 | inactive | Active | Active | Active | 380 | inactive | 7780 | Kd (Quadruplex DNA [2]): 5930 nM; Kd (Quadruplex DNA [10]): 3390 nM; Kd (Quadruplex DNA [12]): 980 nM; EC50 (dsDNA [22]): 1690 nM; Activity (Quadruplex DNA [24]): Active; Activity (Quadruplex DNA [25]): Active; Activity (dsDNA [26]): inactive; EC50 (dsDNA [27]): 9390 nM; Kd (Quadruplex DNA [28]): 1130 nM; Activity (A-375 [29]): 0%; Activity (Quadruplex DNA [30]): Active; Kd (Quadruplex DNA [31]): 350 nM
C[n+]1cc2c3c(ccc2c2ccc4cc5c(cc4c21)OCO5)OCO3 [SANGUINARIUM] | inactive | 5700 | Active | Active | 2760 | Active | 20.4 | 260 | 7190 | 27.86 | 140 | Active | 4150 | Active | Active | Active | Active | 580 | Active | 2330 | Activity (Quadruplex DNA [2]): inactive; Activity (Quadruplex DNA [10]): inactive; Activity (Quadruplex DNA [12]): inactive; EC50 (dsDNA [22]): 610 nM; Activity (Quadruplex DNA [24]): Active; Activity (Quadruplex DNA [25]): Active; Activity (dsDNA [26]): Active; EC50 (dsDNA [27]): 790 nM; Kd (Quadruplex DNA [28]): 2790 nM; Activity (A-375 [29]): 0.84%; Activity (Quadruplex DNA [30]): Active; Kd (Quadruplex DNA [31]): 440 nM
